In patent publication US5834010A, “Triacetin as a penetration enhancer for transdermal delivery of a basic drug” (priority 1997, dated 1998):
Read-outs that look alike come from different tables or passages of the source.

Legend:
[1] = In vitro human cadaver skin flux of oxybutynin free base from adhesive matrix patches (modified Franz cells)
Protocol: In vitro human cadaver skin flux studies were conducted using modified Franz non-jacketed permeation cells. The temperature of the cells was maintained at 32° C. by placing the cells in a circulating water bath positioned over a stirring module. The epidermal membrane was separated from the human cadaver whole skin by the heat-separation method of Kligman & Christopher, 88 Arch. Dermatol. 702 (1963), hereby incorporated by reference, involving treating the full thickness skin at 60° C. for 60 seconds, after which time the stratum corneum and the epidermis (epidermal membrane) were gently peeled from the dermis.
For skin flux studies of matrix devices, the epidermal membrane was cut into rectangular strips, and the matrix device was cut into 0.96 cm^2 circular discs. The release liner was peeled from the disc, and the disc was laminated onto the stratum corneum surface of the epidermal membrane to form a skin-matrix laminate. The skin-matrix laminate was then loaded between the donor and receiver compartments of a diffusion cell with the epidermal side facing the receiver compartment. The laminate was clamped in place, and the receiver compartment was then filled with an appropriate receiving solution for a selected drug. The receiving solution was selected such that the drug was stable in the solution, the subsequent assay of the drug was not interfered with, and solubility of the drug was adequate to ensure sink conditions throughout the experiment. The diffusion cell was then placed in a circulating water bath calibrated to maintain the skin surface temperature at 32°±1° C. At predetermined sampling intervals, the entire contents of the receiver compartment were collected for drug quantitation, and the receiver compartment was filled with fresh receiving solution, taking care to eliminate any air bubbles at the skin/solution interface.
The cumulative amount of drug permeating through the epidermal membrane, Qt (μg/cm^2), at any time t was determined from the following formula: [formula] where Cn is the concentration (μg/ml) of the drug in the receiver sample for the corresponding sample time, V is the volume of fluid in the receiver chamber (~6.3 cm^3), and A is the diffusional area of the cell (0.64 cm^2). The slope of the best fit line to the plot of Qt vs. t gives the steady state flux (Jss, μg/cm^2 /hr); the intercept of this line on the time axis give the lag time (tL,h).
Matrix patches containing varying amounts of oxybutynin free base and penetration enhancers were prepared and tested as described above. The matrix systems consisted of 5 to 20% by weight of oxybutynin free base and 0 to 20% by weight of the enhancer contained in a medical grade acrylic copolymer adhesive.
The matrix formulations were prepared as follows. First, the solids content of the adhesive was determined by weighing a small amount of the adhesive solution in a preweighed aluminum dish. The solvent was evaporated by overnight drying in a convection oven maintained at 80° C. and the weight of the residue (dry adhesive) and percent solid adhesive content of the solution were determined. Once the solids content was determined, a known weight of the acrylic copolymer adhesive solution was weighed into a glass bottle. From the weight of the adhesive solution and the percent solid adhesive content, the amount of adhesive in the solution was calculated. Oxybutynin free base and enhancer were added to the bottle in proportions to yield the selected final composition. The bottle was then tightly capped, sealed with laboratory film, and rotated overnight until all ingredients had completely dissolved and the resultant solution was visually clear.
Approximately 8 ml of the solution was then dispensed on a silanized polyester release liner and cast with a 10 mil gap casting knife. The casting was then dried in a convection oven at 70° C. for 15 minutes to evaporate the solvent and to yield a dried film approximately 0.002 inch thick.

[2] = In vitro human cadaver skin flux of oxybutynin free base from liquid reservoir gel formulations; format: in vitro ADME
Protocol: For skin flux studies of gel formulations (i.e., for liquid reservoir patch designs), the epidermal membrane was cut and placed between two halves of the permeation cell with the stratum corneum facing the donor compartment. The skin was allowed to hydrate at 32° C. overnight with 0.02% (w/v) sodium azide solution in the receiver compartment. The following morning, 75 μl of a gelled formulation was placed into a cavity created by placing a polytetrafluoroethylene washer over the stratum corneum surface. The cavity was then occluded by clamping an occlusive backing over the washer and gel. An appropriate receiving solution for a selected drug was placed in the receiver compartment in contact with the dermal side of the epidermis.
Liquid reservoir gel formulations containing oxybutynin free base and triacetin were tested as described above. Such liquid reservoir gel formulations were prepared in 10 ml quantities. Ethanol, water, glycerin, and triacetin were mixed in selected proportions in a capped vial. Then, 400 mg of oxybutynin free base was added to the vial, and the vial was capped and ultrasonicated to completely dissolve the drug. Next, 0.3 g of modified hydroxyethyl cellulose (NATROSOL PLUS 330CS, Aqualon, Wilmington, Del.) as a gelling agent was added to the mixture and the contents were mixed thoroughly and gently rotated overnight to completely dissolve the gelling agent.

[3] = Enhancement of transdermal penetration, general statement; format: in vitro ADME
Text: As used herein, the terms "enhancement", "penetration enhancement" or "permeation enhancement" mean an increase in the permeability of a biological membrane (i.e. skin or mucosa) to a drug, so as to increase the rate at which the drug permeates through the membrane. "Permeation enhancer," "enhancer," "penetration enhancer," or similar term means a material that achieves such permeation enhancement, and an "effective amount" of an enhancer means an amount effective to enhance penetration through the skin or mucosa of a selected agent to a selected degree. The enhanced permeation as effected though the use of such enhancers can be observed, for example, by measuring the rate of diffusion of the drug through animal or human skin using a diffusion cell apparatus. Such a diffusion cell is described by Merritt et al., Diffusion Apparatus for Skin Penetration, 1 J. of Controlled Release 61 (1984), incorporated herein by reference.

[4] = propylene glycol/linoleic acid enhancer system; cited from earlier work
[5] = Allen, U.S. Pat. No. 4,895,727; cited from earlier work
[6] = plaster with glycol and surfactant, WO9309783-A1; cited from earlier work
[7] = isosorbide dinitrate, JP05148141-A; cited from earlier work

In the case of CN1CCCC1=O [N-methyl pyrrolidone, reference compound], the “exhibited the ability to increase transdermal skin flux of oxybutynin free base” value [1] is reported as “none of the well known penetration enhancers tested”.

In the case of CCCCCCCC/C=C\CCCCCCCC(=O)OCC(O)CO (centres unmarked) [glycerol monooleate, reference compound], the “exhibited the ability to increase transdermal skin flux of oxybutynin free base” value ([1]; matrix system, TSR adhesive) is reported as “none of the well known penetration enhancers tested”.

With CCCCCCCCCCCCCC(=O)OC(C)C [isopropyl myristate, reference compound] the “exhibited the ability to increase transdermal skin flux of oxybutynin free base” value ([1]; matrix system, TSR adhesive) was “none of the well known penetration enhancers tested”.

In the case of CCCCCCCCCCCCO [lauryl alcohol, reference compound], the “exhibited the ability to increase transdermal skin flux of oxybutynin free base” value ([1]; matrix system, TSR adhesive) is reported as “none of the well known penetration enhancers tested”.

For CC(=O)OCC(COC(C)=O)OC(C)=O [triacetin, glyceryl triacetate], the “effect on skin flux of oxybutynin free base” value [1] was “significantly increases the skin flux of oxybutynin free base”, the “penetration enhancement with liquid reservoir patches” value [2] was “no penetration enhancement of basic drugs (including oxybutynin) or other drugs has been observed” and the “enhancing transdermal penetration of basic drugs” value ([3]; basic drugs, particularly pKa of about 8.0 or above, matrix patch) was “effective in enhancing transdermal penetration of basic drugs”. The “enhancing transdermal penetration of neutral or acidic drugs” value ([3]; neutral or acidic drugs) was “not of neutral or acidic drugs”, the “flux of oxymorphone with increasing amounts of triacetin and decreasing linoleic acid” value [4] was “decreasing flux” and the “lag time for permeation of oxymorphone with increasing amounts of triacetin and decreasing linoleic acid” value [4] was “increasing lag time”. For the same compound, the antifungal activity [5] was “has activity as an antifungal agent”, the “percutaneous absorption of piroxicam” value [6] was “enhances percutaneous absorption of piroxicam” and the “penetration enhancing effect of triacetin” value [7] was “shown only in conjunction with a neutral, solvent-acting drug”.

In the case of “sorbitan monooleate [reference compound]”, the “exhibited the ability to increase transdermal skin flux of oxybutynin free base” value ([1]; matrix system, TSR adhesive) is reported as “none of the well known penetration enhancers tested”.
